According to ChEMBL document CHEMBL1201862, “PubChem BioAssay data set” (2004):
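Values below derive from 48-hour exposures of cells grown in 96-well plates, with endpoints linearly interpolated between the two concentrations bracketing the appropriate inhibition level. GI50 is the concentration that inhibits growth by half.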 Activity calls are given as the source filed them. Cut-off read from the data, not from the text of the source: active = GI50 up to about 1.1 µM and inactive = higher.

How the values were obtained:
Test in all cases: NCI-60 cell line screen, 48 h
U-251 = test system: U-251
NCI-H522 = test system: NCI-H522
EKVX = test system: EKVX
SF-539 = test system: SF-539
COLO 205 = test system: COLO 205
UACC-62 = test system: UACC-62
RXF 631 = test system: RXF 631
DLD-1 = test system: DLD-1
SK-MEL-2 = test system: SK-MEL-2
SF-295 = test system: SF-295
SNB-19 = test system: SNB-19
UACC-257 = test system: UACC-257
SK-MEL-5 = test system: SK-MEL-5
KM12 = test system: KM12
A549 = test system: A549
HT-29 = test system: HT-29
RPMI-8226 = test system: RPMI-8226
CAKI-1 = test system: CAKI-1
KM-20L2 = test system: KM-20L2
HCT-15 = test system: HCT-15
HCC 2998 = test system: HCC 2998
SK-MEL-28 = test system: SK-MEL-28
OVCAR-8 = test system: OVCAR-8
LXFL 529 = test system: LXFL 529
CCRF-CEM = test system: CCRF-CEM
SK-OV-3 = test system: SK-OV-3
DMS-273 = test system: DMS-273
HCT-116 = test system: HCT-116
SF-268 = test system: SF-268
SW-620 = test system: SW-620
Malme-3M = test system: Malme-3M
HOP-62 = test system: HOP-62
HOP-92 = test system: HOP-92
LOX IMVI = test system: LOX IMVI
DMS-114 = test system: DMS-114
IGROV-1 = test system: IGROV-1
RXF 393 = test system: RXF 393
SN12C = test system: SN12C
NCI-H460 = test system: NCI-H460
NCI-H23 = test system: NCI-H23
OVCAR-3 = test system: OVCAR-3
ACHN = test system: ACHN
K562 = test system: K562
SR = test system: SR
786-0 = test system: 786-0
MOLT-4 = test system: MOLT-4
NCI-H226 = test system: NCI-H226
HL-60 = test system: HL-60
TK-10 = test system: TK-10
OVCAR-5 = test system: OVCAR-5
A498 = test system: A498
M14 = test system: M14
SNB-78 = test system: SNB-78
SNB-75 = test system: SNB-75
M19-MEL = test system: M19-MEL
OVCAR-4 = test system: OVCAR-4
UO-31 = test system: UO-31

Cn1c2c(c3ccccc31)C1C(=O)N(c3ccccc3)C(=O)C1CC2 (configuration not stated)
GI50 (U-251): > 303 µM (inactive) | GI50 (NCI-H522): 243 µM (inactive) | GI50 (EKVX): > 303 µM (inactive) | GI50 (SF-539): > 303 µM (inactive) | GI50 (COLO 205): > 303 µM (inactive) | GI50 (UACC-62): > 303 µM (inactive) | GI50 (RXF 631): > 303 µM (inactive) | GI50 (DLD-1): > 303 µM (inactive) | GI50 (SK-MEL-2): > 303 µM (inactive) | GI50 (SF-295): > 303 µM (inactive) | GI50 (SNB-19): 111 µM (inactive) | GI50 (UACC-257): > 303 µM (inactive) | GI50 (SK-MEL-5): > 303 µM (inactive) | GI50 (KM12): > 303 µM (inactive) | GI50 (A549): > 303 µM (inactive) | GI50 (HT-29): > 303 µM (inactive) | GI50 (RPMI-8226): > 303 µM (inactive) | GI50 (CAKI-1): > 303 µM (inactive) | GI50 (KM-20L2): > 303 µM (inactive) | GI50 (HCT-15): > 303 µM | GI50 (HCC 2998): > 303 µM (inactive) | GI50 (SK-MEL-28): > 303 µM (inactive) | GI50 (OVCAR-8): > 303 µM (inactive) | GI50 (LXFL 529): > 303 µM (inactive) | GI50 (CCRF-CEM): > 303 µM (inactive) | GI50 (SK-OV-3): > 303 µM (inactive) | GI50 (DMS-273): > 303 µM (inactive) | GI50 (HCT-116): 294 µM (inactive) | GI50 (SF-268): > 303 µM (inactive) | GI50 (SW-620): > 303 µM (inactive) | GI50 (Malme-3M): > 303 µM (inactive) | GI50 (HOP-62): > 303 µM (inactive) | GI50 (HOP-92): > 303 µM (inactive) | GI50 (LOX IMVI): > 303 µM (inactive) | GI50 (DMS-114): > 303 µM (inactive) | GI50 (IGROV-1): > 303 µM (inactive) | GI50 (RXF 393): > 303 µM (inactive) | GI50 (SN12C): > 303 µM (inactive) | GI50 (NCI-H460): > 303 µM (inactive) | GI50 (NCI-H23): > 303 µM (inactive) | GI50 (OVCAR-3): 123 µM (inactive) | GI50 (ACHN): > 303 µM (inactive) | GI50 (K562): > 303 µM (inactive) | GI50 (SR): > 303 µM (inactive) | GI50 (786-0): > 303 µM (inactive) | GI50 (MOLT-4): > 303 µM (inactive) | GI50 (NCI-H226): 85.5 µM (inactive) | GI50 (HL-60): > 303 µM (inactive) | GI50 (TK-10): > 303 µM (inactive)

CC1=C(C(=O)Nc2cc(F)c(F)cc2F)C(c2ccc(N(C)C)cc2)C(C(=O)Nc2cc(F)c(F)cc2F)=C(C)N1
GI50 (U-251): 28.9 µM (inactive) | GI50 (NCI-H522): 19.8 µM (inactive) | GI50 (EKVX): 16 µM (inactive) | GI50 (OVCAR-5): 32.5 µM (inactive) | GI50 (SF-539): 18.2 µM (inactive) | GI50 (COLO 205): 43.2 µM (inactive) | GI50 (RXF 631): 23 µM (inactive) | GI50 (DLD-1): 34.9 µM (inactive) | GI50 (SK-MEL-2): 28.8 µM (inactive) | GI50 (SF-295): 24.3 µM (inactive) | GI50 (SNB-19): 38.7 µM (inactive) | GI50 (UACC-257): 25.5 µM (inactive) | GI50 (SK-MEL-5): 17.8 µM (inactive) | GI50 (KM12): 19.9 µM (inactive) | GI50 (A549): 16.4 µM (inactive) | GI50 (HT-29): 30.3 µM (inactive) | GI50 (A498): 19.1 µM (inactive) | GI50 (RPMI-8226): 17.2 µM (inactive) | GI50 (CAKI-1): 13.8 µM (inactive) | GI50 (M14): 31.3 µM (inactive) | GI50 (KM-20L2): 34 µM (inactive) | GI50 (HCC 2998): 23.7 µM (inactive) | GI50 (SK-MEL-28): 30.5 µM (inactive) | GI50 (OVCAR-8): 29.6 µM (inactive) | GI50 (LXFL 529): 19.3 µM (inactive) | GI50 (CCRF-CEM): 18.5 µM (inactive) | GI50 (SK-OV-3): 30.1 µM (inactive) | GI50 (DMS-273): 26.9 µM (inactive) | GI50 (SF-268): 27 µM (inactive) | GI50 (SW-620): 28.8 µM (inactive) | GI50 (Malme-3M): 32.7 µM (inactive) | GI50 (SNB-78): 17.7 µM (inactive) | GI50 (HOP-62): 21.1 µM (inactive) | GI50 (SNB-75): 21.5 µM (inactive) | GI50 (HOP-92): 0.53 µM (active) | GI50 (LOX IMVI): 31.8 µM (inactive) | GI50 (DMS-114): 17.2 µM (inactive) | GI50 (IGROV-1): 35.5 µM (inactive) | GI50 (RXF 393): 17.1 µM (inactive) | GI50 (SN12C): 30.1 µM (inactive) | GI50 (M19-MEL): 38 µM (inactive) | GI50 (NCI-H460): 30.3 µM (inactive) | GI50 (NCI-H23): 20.9 µM (inactive) | GI50 (OVCAR-3): 0.432 µM (active) | GI50 (ACHN): 19.4 µM (inactive) | GI50 (K562): 23.6 µM (inactive) | GI50 (786-0): 27.1 µM (inactive) | GI50 (MOLT-4): 15.4 µM (inactive) | GI50 (OVCAR-4): 17.7 µM (inactive) | GI50 (NCI-H226): 20.6 µM (inactive) | GI50 (UO-31): 17.1 µM (inactive) | GI50 (HL-60): 13.9 µM (inactive) | GI50 (TK-10): 32.7 µM (inactive)
